In patent publication US8293704B2, “Crystalline form of linaclotide” (priority 2009, dated 2012):
Bridge positions count the residues as written; N and C are the ends. Peptide text beside a SMILES is read from it.

Experiment: Solid-state chemical stability of amorphous and α-crystalline linaclotide (HPLC assay after storage at 40° C./75% RH)
Type: physicochemical
Settings: for Degradation Products / Normalized Assay / Acetylation Product / Hydrolysis Product / Non-disulfide linked multimers / Water-Mediated Products: induction sealed 45 cc HDPE bottles; for Remaining fraction (not assay, not degradation products), may comprise multimers: 3 months at 40° C./75% RH
Description: The relative chemical purity and stability of amorphous and crystalline linaclotide was studied using reverse phase high performance liquid chromatography (HPLC). The chemical identification was conducted using reverse phase high performance liquid chromatography coupled with mass spectroscopy (HPLC-MS). The mass spectroscopic analysis was performed at Enhance MS scan (EMS) mode with positive ionization and a scan range (m/z) of 600-1600.
A Perkin Elmer series 200 LC instrument (Perkin Elmer, Waltham, Mass.) was used with a YMC Pro C18 column (150 mm×3.0 mm, 3 μm) (Waters Corporation, Milford, Mass.). The column temperature was set at 40° C. while the auto sampler temperature was maintained at 4° C. using a peltier tray. The injection volume was 50 μl. A gradient (0.6 ml/minute) run was used comprising of two solvents; A (97.9% Water, 2% Acetonitrile, 0.1% Trifluoroacetic Acid) and B (94.9% Acetonitrile, 5% Water, 0.1% Trifluoroacetic Acid). The gradient was set according to the scheme described in Table 10. The effluent was detected at 220 nm using a UV detector.
The solid-state chemical stability of the α-crystalline form of linaclotide was then compared to that of amorphous form linaclotide. Known quantities of test materials were placed in 45 cc high-density polyethylene bottles. The bottles were induction sealed and placed in 40° C./75% RH stability chamber. Two bottles were then withdrawn at the time points of 2 weeks, at 1 month, at 2 months, and at 3 months, and were analyzed after adequate dilution for assay.

[1] = 3 months storage, 40° C./75% RH

Row | Structure (SMILES) | Degradation Products (1 Month at 40° C./75% RH) [Wt %] | Normalized Assay (1 Month at 40° C./75% RH) [Wt %] | Degradation Products (2 Months at 40° C./75% RH) [Wt %] | Normalized Assay (2 Months at 40° C./75% RH) [Wt %] | Degradation Products (2 Weeks at 40° C./75% RH) [Wt %] | Normalized Assay (2 Weeks at 40° C./75% RH) [Wt %] | Degradation Products (3 Months at 40° C./75% RH) [Wt %] | Normalized Assay (3 Months at 40° C./75% RH) [Wt %] | Remaining fraction (not assay, not degradation products), may comprise multimers [%] | Acetylation Product [1] [Wt %] | Hydrolysis Product [1] [Wt %] | Non-disulfide linked multimers [1] [Wt %] | Water-Mediated Products [1] [Wt %] | Degradation Products (Initial, solid state) [Wt %] | Normalized Assay (Initial, solid state) [Wt %] | Remaining fraction (not assay, not degradation products), may comprise multimers (listed as α-form linaclotide) [%] | Acid-induced hydrolysis (in words) [1] | Concentration of degradation products compared with amorphous linaclotide (in words) (40° C./75% RH, up to 3 months) | Multimer formation compared with amorphous linaclotide (in words) (40° C./75% RH, up to 3 months) | Stability profile compared with amorphous linaclotide (in words) (40° C./75% RH, up to 3 months)
1 | C[C@@H]1NC(=O)[C@@H]2CCCN2C(=O)[C@H](CC(N)=O)NC(=O)[C@@H]2CSSC[C@H](N)C(=O)N[C@H]3CSSC[C@H](NC1=O)C(=O)N[C@@H]([C@@H](C)O)C(=O)NCC(=O)N[C@H](C(=O)N[C@@H](Cc1ccc(O)cc1)C(=O)O)CSSC[C@H](NC(=O)[C@H](Cc1ccc(O)cc1)NC(=O)[C@H](CCC(=O)O)NC3=O)C(=O)N2 [Amorphous Linaclotide, linaclotide] (H-CCEYCCNPACTGCY-OH; disulfide 1-6, 2-10, 5-13) | 5.6 | 79.1 | 9.3 | 74.5 | 3.6 | 84.0 | 12.0 | 68.8 | 19.2 | 2.39 | 0.30 | 1.96 | 7.00 | 2.1 | 100.0 |  |  |  |  | 
2 | C[C@@H]1NC(=O)[C@@H]2CCCN2C(=O)[C@H](CC(N)=O)NC(=O)[C@@H]2CSSC[C@H](N)C(=O)N[C@H]3CSSC[C@H](NC1=O)C(=O)N[C@@H]([C@@H](C)O)C(=O)NCC(=O)N[C@H](C(=O)N[C@@H](Cc1ccc(O)cc1)C(=O)O)CSSC[C@H](NC(=O)[C@H](Cc1ccc(O)cc1)NC(=O)[C@H](CCC(=O)O)NC3=O)C(=O)N2 [α-Crystalline Linaclotide, linaclotide] (H-CCEYCCNPACTGCY-OH; disulfide 1-6, 2-10, 5-13) | 3.8 | 91.9 | 5.1 | 89.7 | 2.6 | 94.8 | 7.5 | 88.4 |  | 0.31 | 5.70 | 0.07 | 0.40 | 2.4 | 100.0 | 4.1 | pronounced | significantly lower concentration of degradation products | significantly less multimer formation | substantially better stability profile than amorphous linaclotide
